The source of these data is US20250096297A1, “NOVEL AQUEOUS-PHASE REDOX FLOW BATTERIES” (KEMIWATT, priority 2022, published 2025).

Converted amounts (≈) assume the structure as drawn. Like-named read-outs stand apart in the source and are kept apart here.

Usually solubility stands for how much of the substance goes into solution per volume. Broadly, the pKa is the pH at which an ionisable group is half protonated.

The nature of series [1]: Solubility in water of formula (I) compounds in the presence of different bases (Example 2). Particulars: for relative solubility, 1,1,3,3-Tetramethyl guanidine: 1.2 mol/L 1,1,3,3-Tetramethyl guanidine; for relative solubility, (NH3)aq: 1.2 mol/L (NH3)aq; for relative solubility, CsOH: 1.2 mol/L CsOH; for relative solubility, KOH: 1.2 mol/L KOH; for relative solubility, LiOH: 1.2 mol/L LiOH; for relative solubility, N-Ethyl pyrrolidine: 1.2 mol/L N-Ethyl pyrrolidine; for relative solubility, NEt3: 1.2 mol/L NEt3; for relative solubility, NMe4OH: 1.2 mol/L NMe4OH; for relative solubility, PBu4OH: 1.2 mol/L PBu4OH; for relative solubility, RbOH: 1.2 mol/L RbOH; for solubility: aqueous NaOH solution, aqueous buffer.

The conditions of series [2]: conjugate acid of the base, cited from earlier work.
The conditions of series [3]: formed cation, cited from earlier work; for Volume: derived from the literature.
A short description of series [4]: Chemical compatibility of bases with the posolyte: SOC of ferricyanide solution by linear voltammetry. The series is classed as physicochemical. Particulars: 0.5 mol/L ferricyanide, 0.1 mol/L compound, pH about 13, 7 days in sealed flask.
Series [5] is described as follows: physchem. To be noted: aqueous buffer.
Series [6] can be described thus: physchem. Particulars: aqueous buffer. The source holds these as a separate data set.
Setting [7] is: relative to solubility in 1 mol/L NaOH.
Where [8] appears, read: literature (Charlot) or predicted by COSMO-RS.
[9] abbreviates: footnote b, hexa-coordinate cation within a crystal (Shannon 1976).
The mark [10] stands for this setting: footnote a (Hall, J. Amer. Chem. Soc 1957).

Take `O=C(O)c1ccc2c(c1)C(=O)c1ccccc1C2=O`: in series [1] (setting [7]), the “relative solubility, 1,1,3,3-Tetramethyl guanidine” value is reported as “×4100”; the “relative solubility, (NH3)aq” value is recorded as “×50”; the “relative solubility, CsOH” value is listed as “×70”; the “relative solubility, KOH” value is “×10”. In series [1] (setting [7]), the “relative solubility, LiOH” value is on record as “×14”; the “relative solubility, N-Ethyl pyrrolidine” value is recorded as “×2000”; the “relative solubility, NEt3” value was “×2000”; the “relative solubility, NMe4OH” value is recorded as “×3700”. In series [1] (setting [7]), the “relative solubility, PBu4OH” value is reported as “×4100” and the “relative solubility, RbOH” value is on record as “×150”. Also, the “relative solubility, NMe3” value in series [1] (1.2 mol/L NMe3, relative to solubility in 1 mol/L NaOH) is “×2000”. For the same molecule, in series [1], the solubility was 0.25 mM.
Regarding `CN(C)C(=N)N(C)C` [1,1,3,3-Tetramethyl guanidine, 1,1,3,3-tetramethylguanidine], the pKa in series [2] (setting [8]) is listed as 13.0.
On to `N` [Ammonia], for which the Volume in series [3] is 13.6 Å^3. Moreover, the Radius in series [3] (footnote c (Sidey 2016)) is on record as 1.48^c Å.
On to `[Cs+].[OH-]` [Caesium hydroxide], for which the Volume in series [3] is 19.5 Å^3. Moreover, the Radius in series [3] (setting [9]) is recorded as 1.67^b Å.
On to `C[N+](C)(C)CCO.[OH-]` [CholineOH, choline hydroxide], for which the “SOC after a contact time of 7 days with ferricyanide” value in series [4] was determined as 82.7%.
On to `C1CCC2=NCCCN2CC1` [DBU, 1,8-diazabicyclo[5.4.0]undec-7-ene], for which, in series [2] (setting [8]), the pKa is on record as 13.5.
Turning to `CCCCCCCCCCCC[N+](C)(C)CCCCCCCCCCCC` [Didodecyl, dimethyl ammonium, didodecyldimethylammonium hydroxide], the pKa in series [2] (setting [8]) is 14.
On to `CCN(C)C` [Dimethyl, ethyl amine, ethyldimethylamine], for which the pKa in series [2] (setting [10]) is listed as 10.0^a.
Turning to `[Li+].[OH-]` [Lithium hydroxide], the Volume in series [3] was 1.8 Å^3. In series [3] (setting [9]), the Radius is given as 0.76^b Å.
Turning to `CCN(C)CC` [Methyl, diethyl amine, diethylmethylamine], the pKa in series [2] (setting [10]) is on record as 10.3^a.
Turning to `C[N+]1(C)CCCCC1.[OH-]` [N,N-Dimethyl piperidinium, N,N-dimethylpiperidinium hydroxide], the pKa in series [2] (setting [8]) is reported as 14.
As to `C[N+]1(C)CCCC1.[OH-]` [N,N-Dimethyl pyrrolidinium, N,N-dimethylpyrrolidinium hydroxide], the pKa in series [2] (setting [8]) is 14.
Take `CCN1CCCCC1` [N-Ethyl piperidine, N-ethylpiperidine]: the pKa in series [2] (setting [10]) is on record as 10.4^a.
With `CCN1CCCC1` [N-Ethyl pyrrolidine, N-ethylpyrrolidine], in series [2] (setting [8]), the pKa is on record as 10.7.
With `C[n+]1ccccc1.[OH-]` [N-Methyl pyridinium, N-methylpyridinium hydroxide], the pKa in series [2] (setting [8]) is 14.
As for `CN1CCCC1` [N-Methyl pyrrolidine, N-methylpyrrolidine], the pKa in series [2] (setting [10]) is given as 10.5^a.
With `[K+].[OH-]` [Potassium hydroxide], the Volume in series [3] is listed as 11.0 Å^3. For the same molecule, the Radius in series [3] (setting [9]) is 1.38^b Å.
Take `[OH-].[Rb+]` [Rubidium hydroxide]: the Volume in series [3] is recorded as 14.7 Å^3. The Radius in series [3] (setting [9]) was 1.52^b Å.
Turning to `[Na+].[OH-]` [Sodium hydroxide], the Volume in series [3] was 4.4 Å^3. Besides, the Radius in series [3] (setting [9]) was 1.02^b Å.
For `C[N+](C)(C)C` [Tetramethyl ammonium, tetramethylammonium hydroxide], the pKa in series [2] (setting [8]) is 14.
For the molecule `C[N+](C)(C)Cc1ccccc1.[OH-]` [Tetramethyl, benzyl ammonium, trimethyl benzylammonium hydroxide], in series [2] (setting [8]), the pKa is given as 14.
Turning to `CCCCCCCCCCCCCCCC[N+](C)(C)C` [Trimethyl, cetyl ammonium, trimethyl cetylammonium hydroxide], the pKa in series [2] (setting [8]) was 14.
Take `O=C1c2ccccc2C(=O)c2c1ccc(O)c2O` [alizarin]: the solubility in series [5] came to 23 mM (≈ 5520 µg/mL).
As to `O=C1c2ccccc2C(=O)c2c(O)ccc(O)c21` [drawing 31, quinizarin], in series [1] (setting [7]), the “relative solubility, 1,1,3,3-Tetramethyl guanidine” value is listed as “×82”; the “relative solubility, (NH3)aq” value is recorded as “×3”; the “relative solubility, CsOH” value is “×32”; the “relative solubility, KOH” value is listed as “×8”. In addition, in series [1] (setting [7]), the “relative solubility, LiOH” value is listed as “×0.03”; the “relative solubility, N-Ethyl pyrrolidine” value is given as “×13”; the “relative solubility, NEt3” value is “×3”; the “relative solubility, NMe4OH” value is “×213”. Further, in series [1] (setting [7]), the “relative solubility, PBu4OH” value is reported as “×211” and the “relative solubility, RbOH” value is “×16”. Besides, the “relative solubility, DBU” value in series [1] (1.2 mol/L DBU, relative to solubility in 1 mol/L NaOH) is “×234”. In addition, the “relative solubility, N-Methyl pyrrolidine” value in series [1] (1.2 mol/L N-Methyl pyrrolidine, relative to solubility in 1 mol/L NaOH) is “×7”. Further, in series [1] (1.2 mol/L Trimethyl, benzyl ammonium, relative to solubility in 1 mol/L NaOH), the “relative solubility, Trimethyl, benzyl ammonium” value is “×255”. Moreover, the solubility in series [1] was determined as 3.8 mM.
As to `O=C(O)[C@@H]1CCCN1` [proline], in series [4], the “SOC after a contact time of 7 days with ferricyanide” value is recorded as 77.7%.
`O=C1c2ccccc2C(=O)c2c(O)ccc(O)c21` [quinizarin] showed a solubility in series [6] of 31 mM (≈ 7450 µg/mL).
